Where “and” joins values, the source holds several entries; their conditions need not be identical. Equal entries are not always repeated. Inconclusive results and toxic doses are left out.
Tested on: P388 leukemia ip, CD2F1 mice, survival T/C
Assay: NCI In Vivo Anticancer Drug Screen. Data for tumor model P388 Leukemia (intraperitoneal) in CD2F1 (CDF1) mice
Details: endpoint: median survival time, higher = longer survival
Procedure, shortened: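 Mice carrying the transplanted tumor received test compound or vehicle. Survival was recorded in each group, and the value is the treated-group measurement divided by that of the vehicle-treated control group.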

[1] = dose: 50.0 mg/kg/injection, schedule: Q01DX009 (ip), vehicle: saline with Tween-80
[2] = dose: 100.0 mg/kg/injection, schedule: Q01DX009 (ip), vehicle: saline with Tween-80
[3] = dose: 50.0 mg/kg/injection, schedule: Q01DX009 (ip), vehicle: Klucel (hydroxypropylcellulose) (HPC)
[4] = dose: 100.0 mg/kg/injection, schedule: Q01DX009 (ip), vehicle: Klucel (hydroxypropylcellulose) (HPC)
[5] = dose: 200.0 mg/kg/injection, schedule: Q01DX009 (ip), vehicle: Klucel (hydroxypropylcellulose) (HPC)
[6] = dose: 50.0 mg/kg/injection, schedule: Q01DX005 (ip), vehicle: Klucel (hydroxypropylcellulose) (HPC)
[7] = dose: 100.0 mg/kg/injection, schedule: Q01DX005 (ip), vehicle: Klucel (hydroxypropylcellulose) (HPC)
[8] = dose: 200.0 mg/kg/injection, schedule: Q01DX005 (ip), vehicle: Klucel (hydroxypropylcellulose) (HPC)
[9] = dose: 100.0 mg/kg/injection, schedule: Q04DX003 (ip), vehicle: saline with Tween-80
[10] = dose: 200.0 mg/kg/injection, schedule: Q04DX003 (ip), vehicle: saline with Tween-80

With `COc1cc([C@@H]2c3cc4c(cc3[C@@H](OC3OC5CO[C@@H](c6cccs6)OC5C(O)C3O)[C@H]3COC(=O)[C@H]23)OCO4)cc(OC)c1O` (some centres not stated) the T/C (dose: 0.25 mg/kg/injection, schedule: Q01DX009 (ip), vehicle: saline) was 170 % of control, the T/C (dose: 0.5 mg/kg/injection, schedule: Q01DX009 (ip), vehicle: saline) was 208 % of control and the T/C (dose: 0.75 mg/kg/injection, schedule: Q01DX005 (iv), vehicle: saline) was 100 % of control. For the same compound, the T/C (dose: 1.0 mg/kg/injection, schedule: Q01DX009 (ip), vehicle: saline) was 261 % of control, the T/C (dose: 1.5 mg/kg/injection, schedule: Q01DX005 (iv), vehicle: saline) was 104 % of control and the T/C (dose: 2.0 mg/kg/injection, schedule: Q01DX005 (ip), vehicle: saline) was 155 % of control. For the same compound, the T/C (dose: 2.0 mg/kg/injection, schedule: Q01DX009 (ip), vehicle: saline) was 157 % of control and 449 % of control, the T/C (dose: 3.0 mg/kg/injection, schedule: Q01DX005 (iv), vehicle: saline) was 99 % of control and the T/C (dose: 3.24 mg/kg/injection, schedule: Q04DX003 (ip), vehicle: clinical formulation) was 225 % of control. The T/C (dose: 3.89 mg/kg/injection, schedule: Q04DX003 (ip), vehicle: saline) was 166 % of control, the T/C (dose: 4.0 mg/kg/injection, schedule: Q01DX005 (ip), vehicle: saline) was 166 % of control and the T/C (dose: 5.4 mg/kg/injection, schedule: Q04DX003 (ip), vehicle: clinical formulation) was 239 % of control. For the same compound, the T/C (dose: 6.0 mg/kg/injection, schedule: Q01DX005 (ip), vehicle: saline) was 167 % of control, the T/C (dose: 6.0 mg/kg/injection, schedule: Q01DX005 (iv), vehicle: saline) was 116 % of control and the T/C (dose: 6.48 mg/kg/injection, schedule: Q04DX003 (ip), vehicle: clinical formulation) was 170 % of control. For the same compound, the T/C (dose: 6.48 mg/kg/injection, schedule: Q04DX003 (ip), vehicle: saline) was 163 % of control, the T/C (dose: 7.78 mg/kg/injection, schedule: Q04DX003 (ip), vehicle: saline) was 175 % of control and the T/C (dose: 8.0 mg/kg/injection, schedule: Q01DX005 (ip), vehicle: saline) was 222 % of control. For the same compound, the T/C (dose: 9.0 mg/kg/injection, schedule: Q04DX003 (ip), vehicle: clinical formulation) was 371 % of control, the T/C (dose: 10.8 mg/kg/injection, schedule: Q04DX003 (ip), vehicle: clinical formulation) was 203 % of control and the T/C (dose: 10.8 mg/kg/injection, schedule: Q04DX003 (ip), vehicle: saline) was 211 % of control. The T/C (dose: 13.0 mg/kg/injection, schedule: Q04DX002 (ip), vehicle: saline) was 168 % of control, the T/C (dose: 13.0 mg/kg/injection, schedule: Q04DX003 (ip), vehicle: saline) was 194 % of control and the T/C (dose: 15.0 mg/kg/injection, schedule: Q04DX003 (ip), vehicle: clinical formulation) was 371 % of control. For the same compound, the T/C (dose: 16.0 mg/kg/injection, schedule: Q01DX005 (ip), vehicle: saline) was 206 % of control, the T/C (dose: 18.0 mg/kg/injection, schedule: Q04DX003 (ip), vehicle: clinical formulation) was 252 % of control and the T/C (dose: 18.0 mg/kg/injection, schedule: Q04DX003 (ip), vehicle: saline) was 211 % of control. For the same compound, the T/C (dose: 21.6 mg/kg/injection, schedule: Q04DX002 (ip), vehicle: saline) was 171 % of control, the T/C (dose: 21.6 mg/kg/injection, schedule: Q04DX003 (ip), vehicle: saline) was 203 % of control and the T/C (dose: 25.0 mg/kg/injection, schedule: Q04DX003 (ip), vehicle: clinical formulation) was 287 % of control. For the same compound, the T/C (dose: 30.0 mg/kg/injection, schedule: Q04DX003 (ip), vehicle: clinical formulation) was 211 % of control, the T/C (dose: 30.0 mg/kg/injection, schedule: Q04DX003 (ip), vehicle: saline) was 257 % of control and the T/C (dose: 36.0 mg/kg/injection, schedule: Q04DX003 (ip), vehicle: saline) was 296 % of control. The T/C (dose: 60.0 mg/kg/injection, schedule: Q04DX002 (ip), vehicle: saline) was 198 % of control, the T/C (dose: 60.0 mg/kg/injection, schedule: Q04DX003 (ip), vehicle: saline) was 296 % of control and the T/C (dose: 100.0 mg/kg/injection, schedule: Q04DX002 (ip), vehicle: saline) was 217 % of control.

With `Cc1ccc(NC(=S)SCc2ccc3c(c2)OCO3)cc1Cl` the T/C (dose: 50.0 mg/kg/injection, schedule: Q01DX009 (ip), vehicle: suspension in saline) was 106 % of control, the T/C (dose: 100.0 mg/kg/injection, schedule: Q01DX009 (ip), vehicle: suspension in saline) was 94 % of control and the T/C (dose: 200.0 mg/kg/injection, schedule: Q01DX009 (ip), vehicle: suspension in saline) was 102 % of control.

With `O=C1C(Br)=Cc2cccc3cccc1c23` the T/C (dose: 25.0 mg/kg/injection, schedule: Q01DX009 (ip), vehicle: saline with Tween-80) was 100 % of control, the T/C [1] was 100 % of control and the T/C [2] was 100 % of control.

With `C=C(c1ccccc1)N1N=NC2CCOC21` (configuration not stated) the T/C (dose: 50.0 mg/kg/injection, schedule: Q01DX005 (ip), vehicle: saline with Tween-80) was 105 % of control, the T/C (dose: 100.0 mg/kg/injection, schedule: Q01DX005 (ip), vehicle: saline with Tween-80) was 99 % of control and the T/C (dose: 200.0 mg/kg/injection, schedule: Q01DX005 (ip), vehicle: saline with Tween-80) was 100 % of control.

`CC(=O)OC1CCC2C3C=CC4=C/C(=N/NC(N)=S)CCC4(C)C3CCC12C` (configuration not stated) was tested, and the T/C (dose: 100.0 mg/kg/injection, schedule: Q01DX001 (ip), vehicle: saline) was 100 % of control, the T/C (dose: 200.0 mg/kg/injection, schedule: Q01DX001 (ip), vehicle: saline) was 98 % of control and the T/C (dose: 400.0 mg/kg/injection, schedule: Q01DX001 (ip), vehicle: saline) was 99 % of control.

In the case of `CCOC(=O)[n+]1ccc(-c2cc[n+](C(=O)OCC)cc2)cc1`, the T/C (dose: 12.5 mg/kg/injection, schedule: Q01DX009 (ip), vehicle: saline) is reported as 88 % of control and the T/C (dose: 25.0 mg/kg/injection, schedule: Q01DX009 (ip), vehicle: saline) is reported as 91 % of control.

`CC(=NCCN=C(C)c1ccccc1O)c1ccccc1O` was tested, and the T/C [3] was 105 % of control, the T/C [4] was 114 % of control and the T/C [5] was 115 % of control.

In the case of `CN1C(=O)N(CCCl)C(=O)C(C)(C2=CCCCC2)C1=O` (configuration not stated), the T/C [3] is reported as 92 % of control, the T/C [4] is reported as 92 % of control and the T/C [5] is reported as 90 % of control.

For `CCOc1cc2c(cc1C(C)c1cc(OC)c(OC)c(OC)c1)OCO2` (configuration not stated), the T/C [6] was 96 % of control, the T/C [7] was 102 % of control and the T/C [8] was 96 % of control.

For `O=C1Nc2ccc(Cl)cc2C1=O`, the T/C [3] was 99 % of control and 98 % of control, the T/C [4] was 105 % of control and the T/C [5] was 118 % of control and 89 % of control.

For `CC(C)N(C(=O)c1ccc(Cl)c(Cl)c1)C(C)C`, the T/C (dose: 12.5 mg/kg/injection, schedule: Q04DX003 (ip), vehicle: saline with Tween-80) was 102 % of control and 103 % of control, the T/C (dose: 25.0 mg/kg/injection, schedule: Q04DX003 (ip), vehicle: saline with Tween-80) was 102 % of control and 97 % of control and the T/C (dose: 50.0 mg/kg/injection, schedule: Q04DX003 (ip), vehicle: saline with Tween-80) was 100 % of control and 97 % of control. For the same compound, the T/C [9] was 103 % of control and 106 % of control (2×), the T/C [10] was 105 % of control and the T/C (dose: 400.0 mg/kg/injection, schedule: Q04DX003 (ip), vehicle: saline with Tween-80) was 101 % of control.

In the case of `CCCCN(CCNc1cc(OC)cc2cccnc12)C1CCCC1`, the T/C (dose: 50.0 mg/kg/injection, schedule: Q01DX005 (ip), vehicle: saline) is reported as 104 % of control and the T/C (dose: 100.0 mg/kg/injection, schedule: Q01DX005 (ip), vehicle: saline) is reported as 88 % of control.

`COc1cc(C(=O)NNC(C)C)cc(OC)c1OC` was tested, and the T/C [6] was 104 % of control, the T/C [7] was 100 % of control and the T/C [8] was 107 % of control.

With `Cc1nc2c(c(-c3ccccc3)n1)Cc1c(ccc3ccccc13)O2` the T/C [1] was 96 % of control, the T/C [2] was 102 % of control and the T/C (dose: 200.0 mg/kg/injection, schedule: Q01DX009 (ip), vehicle: saline with Tween-80) was 99 % of control. The T/C (dose: 400.0 mg/kg/injection, schedule: Q01DX009 (ip), vehicle: saline with Tween-80) was 92 % of control.

For `CN=C(N)N/N=C(/C)c1ccc2c(c1)Cc1cc(I)ccc1-2`, the T/C (dose: 25.0 mg/kg/injection, schedule: Q04DX002 (ip), vehicle: saline with Tween-80) was 106 % of control, the T/C (dose: 50.0 mg/kg/injection, schedule: Q04DX002 (ip), vehicle: saline with Tween-80) was 100 % of control and the T/C (dose: 100.0 mg/kg/injection, schedule: Q04DX002 (ip), vehicle: saline with Tween-80) was 107 % of control.

With `O=P(c1ccccc1)(c1ccccc1)c1ccccc1.O=P(c1ccccc1)(c1ccccc1)c1ccccc1.O=P(c1ccccc1)(c1ccccc1)c1ccccc1.O=P(c1ccccc1)(c1ccccc1)c1ccccc1.[Fe+3].[O-][Cl+3]([O-])([O-])O` the T/C [9] was 97 % of control and the T/C [10] was 93 % of control.

Reference: PubChem BioAssay AID330 (DTP/NCI, 2004)
